Results from paper PMC12140300, “Development of Carbon‐11 Labeled Pyrimidine Derivatives as Novel Positron Emission Tomography (PET) Agents Enabling Brain Sigma‐1 Receptor Imaging” (Advanced Science, 2025).
Read-outs that look alike come from different tables or passages of the source. One block for each compound: values may come before it.

Key:
[1] = test system: σ2R; parameters: method as in PMID 26384292; details: selectivity ratio; cited from earlier work
[2] = target: vesicular acetylcholine transporter (VAChT); details: off-target affinity; literature value, no reference given; cited from earlier work
[3] = target: emopamil binding protein (EBP); parameters: method as in PMID 11377189; details: off-target affinity; cited from earlier work
[4] = test system: σ1R; parameters: method as in PMID 28572487; details: human brain, three-hour imaging period; cited from earlier work
[5] = target: σ1R; details: cited from earlier work
[6] = parameters: method as in PMID 25420090; details: cited from earlier work
[7] = test system: σ2R; parameters: method as in PMID 25420090; details: selectivity ratio, previous work; cited from earlier work
[8] = test system: σ1R; parameters: method as in PMID 25420090; details: rodent acute and neuropathic pain models; cited from earlier work
[9] = test system: non-target receptors or ion channels; parameters: method as in PMID 25420090; details: cited from earlier work
[10] = target: T1, σ1R (Mus musculus, UniProt O55242); assay: Mice PET/CT imaging, baseline and self-blocking; format: in vivo, C57BL/6 mice
T1 construct: The PET/CT studies in mice followed previously reported procedures; from tissue; host or cells: mouse brain in vivo (C57BL/6 wild type; 5xFAD transgenic)
Procedure: PET/CT imaging studies of [^11C]CNY‐01 and [^11C]CNY‐02 were performed in male C57BL/6 mice. […] The whole‐brain time‐activity curve (TAC) of each tracer was generated. […] To investigate the binding specificity of [^11C]CNY‐01 and [^11C]CNY‐02, blocking studies were carried out by pre‐administrating mice with corresponding unlabeled ligands. […] This is due to the receptors in peripheral tissues being occupied by CNY‐01, leading to more radiotracer entering the brain and quickly washing out. […] Of note, the TACs show an increase in brain tracer uptake during the blocking studies, which could be attributed to peripheral blocking effects. To address this, we normalized the brain uptake data to the maximum radioactivity observed in the blood (input function). This normalization allowed us to account for peripheral changes in tracer availability.
Figure 3 Mice PET/CT study with [^11C]CNY‐01 and [^11C]CNY‐02. A) Representative baseline and blocking (pre‐treated with 1.0 mg kg^−1 CNY‐01) PET/CT images of [^11C]CNY‐01 focused on the brain (summed 30‒60 min, n = 4). B) Whole brain time‐activity curves of [^11C]CNY‐01 for baseline and blocking mice. C) The normalized baseline and blocking TACs of [^11C]CNY‐01 (normalized the brain uptake curves with the maximum radioactivity in the blood at each time point). D) Representative baseline and blocking (pre‐treated with 1.0 mg kg^−1 CNY‐02) PET/CT images of [^11C]CNY‐02 focused on the brain (summed 30‒60 min, n = 4). E) Whole brain time‐activity curves of [^11C]CNY‐02 for baseline and blocking mice. F) The normalized baseline and blocking TACs of [^11C]CNY‐02 (normalized the brain uptake curves with the maximum radioactivity in the blood at each time point). Data were presented as mean ± standard error of the mean (SEM). Quantification of results was performed using Student's t‐test (***p < 0.0001).
The PET/CT studies in mice followed previously reported procedures with minor modifications.^[ [53], [54] ^] Mice (wild‐type: C57BL/6, male, 6‐month‐old; AD transgenic: 5xFAD, male, 6‐month‐old, n = 4 for each group) were anesthetized with inhalational isoflurane (Patterson Vet Supply, Inc., Greeley, CO, USA) at 2.0% in a carrier of 2 L min^−1 medical oxygen, and maintained at 1.0% isoflurane during the imaging scan. Mice were injected with radiotracer (200 µL) via lateral tail vein catheterization at the start of the dynamic PET scan (Gamma Medica, Northridge, CA, USA). For blocking studies, the blocking agent was administered via the tail vein 5 min before radiotracer injection. Dynamic PET acquisition lasted 60 min and was followed by computed tomography (CT) for anatomic co‐registration. […] Reconstructed images were exported from the scanner in DICOM format and were analyzed using PMOD (PMOD 4.01).

T1 sequence (O55242 whole entry): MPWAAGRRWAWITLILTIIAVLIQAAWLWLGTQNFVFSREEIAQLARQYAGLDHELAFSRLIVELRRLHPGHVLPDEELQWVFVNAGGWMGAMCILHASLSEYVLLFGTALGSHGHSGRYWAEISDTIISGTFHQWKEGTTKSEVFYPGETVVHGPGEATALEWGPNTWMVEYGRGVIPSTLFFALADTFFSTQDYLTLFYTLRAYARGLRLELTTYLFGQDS

Structure (SMILES): COc1cc(CCN2CCN(CCCc3ccccc3)CC2)ccc1O[11CH3] [[^11C]SA4503]
σ2R/σ1R [1]: 13.3–55.0 | Ki [2]: 50 nM | Ki [3]: 1.7 nM

Structure (SMILES): O=c1sc2cc(CCC[18F])ccc2n1CCN1CCCCCC1 [[^18F]FTC-146]
brain clearance [4]: unexpectedly slow brain clearance | Ki [5]: 0.0025 nM

Structure (SMILES): Cc1nc(-c2ccc(Cl)cc2)nc(OCCCN2CCCCC2)c1Cl [Lan-0101, 5‐chloro‐2‐(4‐chlorophenyl)‐4‐methyl‐6‐(3‐(piperidin‐1‐yl)propoxy)pyrimidine]
brain penetration [6]: good brain penetration | σ2R/σ1R [7]: 1344 | antinociceptive effects [8]: dose‐dependent antinociceptive effects | binding affinities to non-target receptors or ion channels [9]: no significant binding affinities

maximum standard uptake value (SUV) in the brain ([10]; male C57BL/6 mice, baseline PET/CT): 0.7
Structure (SMILES): Cc1nc(-c2ccc(Cl)cc2)nc(OCCCN2CCN([11CH3])CC2)c1Cl [[^11C]CNY-02]
blocking effect, brain uptake normalized to maximum radioactivity in the blood ([10]; pre-treated with 1.0 mg kg^−1 of the corresponding unlabeled ligand): does not show a significant blocking effect
